Measurements from publication PMC8226839, “New Perspectives in the Antimicrobial Activity of the Amphibian Temporin B: Peptide Analogs Are Effective Inhibitors of Candida albicans Growth” (Journal of Fungi, 2021).
Square brackets hold non-standard residues; d marks the D form. Peptide text beside a SMILES is read from it.

Tested on: sheep erythrocytes
Details: 50 μg per disk, Columbia blood agar plates, 37 °C, 24 h

Row | Structure (SMILES) | hemolysis
1 | CC[C@H](C)[C@H](NC(=O)[C@@H]1CCCN1C(=O)[C@H](CC(C)C)NC(=O)[C@H](CC(C)C)NC(=O)[C@@H](CCCCN)NC(=O)[C@H](N)CCCCN)C(=O)N[C@H](C(=O)N[C@H](CCCCN)C(=O)N[C@@H](CC(N)=O)C(=O)N[C@@H](CC(C)C)C(=O)N[C@@H](CC(C)C)C(=O)N[C@H](CCCCN)C(=O)N[C@@H](CO)C(=O)N[C@@H](CC(C)C)C(=O)N[C@@H](CC(C)C)C(N)=O)C(C)C [D-Lys_TB_KKG6K] (H-[dK][dK]LLPIV[dK]NLL[dK]SLL-NH2) | did not induce the hemolysis
2 | CC[C@H](C)[C@H](NC(=O)[C@@H]1CCCN1C(=O)[C@H](CC(C)C)NC(=O)[C@H](CC(C)C)NC(=O)[C@H](CCCCN)NC(=O)[C@@H](N)CCCCN)C(=O)N[C@H](C(=O)N[C@@H](CCCCN)C(=O)N[C@@H](CC(N)=O)C(=O)N[C@@H](CC(C)C)C(=O)N[C@@H](CC(C)C)C(=O)N[C@@H](CCCCN)C(=O)N[C@@H](CO)C(=O)N[C@@H](CC(C)C)C(=O)N[C@@H](CC(C)C)C(N)=O)C(C)C [TB_KKG6K] (H-KKLLPIVKNLLKSLL-NH2) | did not induce the hemolysis
